Measurements as given in US7989449B2, “4,5-dihydro-oxazol-2-yl amine derivatives” (Hoffman-La Roche Inc., priority 2008, dated 2011).
Where a name gives a salt, the structure may show the parent alone.

Target: T1, 6his-tagged full length BACE 1 from SF9 cells (Homo sapiens, UniProt P56817)
T1 construct: 6his-tagged full length BACE 1 from SF9 cells; made in house; host or cells: Sf9 insect cells
Test: BACE1 MR121 protease assay
Type: biochemical
Details: 30 nM 6his-BACE-1, 300 nM substrate peptide WSEVNLDAEFRC-MR121, Na-acetate pH 4.0, fluorescence
Protocol: Assay plate: 384 well microtiter plate, Corning clear, flat bottom, non binding surface
Assaybuffer: 100 mM Na-acetate pH 4.0, 20 mM EDTA, 0.05% BSA
BACE-1: 6his-tagged full length BACE 1 from SF9 cells
Substrate peptide: WSEVNLDAEFRC-MR121
BACE1 MR121 protease assay
39 μl of a 38 nM 6his-BACE-1 solution in assay buffer (final conc. in the assay: 30 nM) were pipetted into the assay plate. 1 μl of a concentration of a potential inhibitor in dimethylsulfoxide was added to the enzyme and incubated for 10 min. Finally, 10 μl of a 1.5 μM solution of the substrate in assay buffer (final conc. in the assay: 300 nM) was added to start the enzymatic reaction. After strong mixing for 2 min the enzymatic reaction was followed by measuring the fluorescence intensity every two minutes for 15 min on a suitable fluorescence reader. […] The slope was calculated from the linear part of the kinetic as a measure of the activity of BACE-1. A range of concentrations of the potential inhibitor was used to generate data for calculating the concentration of inhibitor resulting in 50% of the effect (e.g. IC50, the concentration of the compound inhibiting the BACE-1 activity by 50%).

T1 sequence (P56817 46-501): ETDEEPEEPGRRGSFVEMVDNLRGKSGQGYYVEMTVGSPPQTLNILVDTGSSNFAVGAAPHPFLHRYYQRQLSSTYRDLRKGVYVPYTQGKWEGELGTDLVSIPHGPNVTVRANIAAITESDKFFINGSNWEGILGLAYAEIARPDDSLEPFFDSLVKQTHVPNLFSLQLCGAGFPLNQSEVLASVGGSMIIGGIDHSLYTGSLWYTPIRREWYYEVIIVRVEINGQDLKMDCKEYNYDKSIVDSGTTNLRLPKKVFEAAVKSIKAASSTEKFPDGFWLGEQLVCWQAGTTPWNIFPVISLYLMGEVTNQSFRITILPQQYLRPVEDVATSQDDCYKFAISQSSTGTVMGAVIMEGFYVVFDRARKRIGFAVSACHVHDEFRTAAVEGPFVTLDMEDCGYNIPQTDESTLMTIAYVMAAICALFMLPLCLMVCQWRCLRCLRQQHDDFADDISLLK

SMILES | IC50 [nM]
Cc1cc(OC(F)F)ccc1C1(c2cccc(-c3cccc(Cl)c3)c2)COC(N)=N1 (racemic) [Example 149, (RS)-4-(3′-Chloro-biphenyl-3-yl)-4-(4-difluoromethoxy-2-methyl-phenyl)-4,5-dihydro-oxazol-2-ylamine formate] | 960
COc1ccc(F)c(-c2cc(C3(c4ccc(OC)c(Cl)c4)COC(N)=N3)ccc2F)c1 (racemic) [Example 114, (RS)-4-(3-Chloro-4-methoxy-phenyl)-4-(6,2′-difluoro-5′-methoxy-biphenyl-3-yl)-4,5-dihydro-oxazol-2-ylamine formate] | 660
COc1ccc(C2(c3cccc(-c4cc(Cl)ccc4F)c3)COC(N)=N2)cc1 (racemic) [Example 22, (RS)-4-(5′-Chloro-2′-fluoro-biphenyl-3-yl)-4-(4-methoxy-phenyl)-4,5-dihydro-oxazol-2-ylamine formate] | 831
COc1cncc(-c2cccc(C3(c4ccc(OC(F)F)cc4)COC(N)=N3)c2)c1 (racemic) [Example 90, (RS)-4-(4-Difluoromethoxy-phenyl)-4-[3-(5-methoxy-pyridin-3-yl)-phenyl]-4,5-dihydro-oxazol-2-ylamine formate] | 150
NC1=NC(c2cccc(-c3cncc(F)c3)c2)(c2ccc(OC(F)F)cc2F)CO1 (racemic) [Example 142, (RS)-4-(4-Difluoromethoxy-2-fluoro-phenyl)-4-[3-(5-fluoro-pyridin-3-yl)-phenyl]-4,5-dihydro-oxazol-2-ylamine formate] | 840
Cc1cc(C2(c3ccc(F)c(-c4cncc(F)c4)c3)COC(N)=N2)ccc1OC(F)F (racemic) [Example 122, (RS)-4-(4-Difluoromethoxy-3-methyl-phenyl)-4-[4-fluoro-3-(5-fluoro-pyridin-3-yl)-phenyl]-4,5-dihydro-oxazol-2-ylamine formate] | 150
CCOCc1cc(Nc2cccc(OC)c2)cc(C2(c3ccc(OC(F)F)c(C)c3)COC(N)=N2)c1 (racemic) [Example 194, (RS)-4-(4-Difluoromethoxy-3-methyl-phenyl)-4-[3-ethoxymethyl-5-(3-methoxy-phenylamino)-phenyl]-4,5-dihydro-oxazol-2-ylamine] | 140
COc1ccc(F)c(-c2cccc(C3(c4ccc(OC(F)F)c(C)c4)COC(N)=N3)c2)c1 (racemic) [Example 105, (RS)-4-(4-Difluoromethoxy-3-methyl-phenyl)-4-(2′-fluoro-5′-methoxy-biphenyl-3-yl)-4,5-dihydro-oxazol-2-ylamine formate] | 130
Cc1cc(C2(c3cccc(-c4cncc(C#N)c4)c3)COC(N)=N2)ccc1OC(F)F (racemic) [Example 203, (RS)-5-{3-[2-Amino-4-(4-difluoromethoxy-3-methyl-phenyl)-4,5-dihydro-oxazol-4-yl]-phenyl}-nicotinonitrile formate] | 110
Cc1cc(C2(c3cccc(-c4cccnc4)c3)COC(N)=N2)ccc1OC(F)F (racemic) [Example 97, (RS)-4-(4-Difluoromethoxy-3-methyl-phenyl)-4-(3-pyridin-3-yl-phenyl)-4,5-dihydro-oxazol-2-ylamine formate] | 120
CCOc1ccc(C2(c3cccc(-c4cncc(OC)c4)c3)COC(N)=N2)cc1 (racemic) [Example 83, (RS)-4-(4-Ethoxy-phenyl)-4-[3-(5-methoxy-pyridin-3-yl)-phenyl]-4,5-dihydro-oxazol-2-ylamine formate] | 970
COCCc1cc(Nc2ccccc2)cc(C2(c3ccc(OC)c(C)c3)COC(N)=N2)c1 (racemic) [Example 197, (RS)-4-[3-(2-Methoxy-ethyl)-5-phenylamino-phenyl]-4-(4-methoxy-3-methyl-phenyl)-4,5-dihydro-oxazol-2-ylamine] | 530
COc1ccc(C2(c3ccc(F)c(-c4cncc(Cl)c4)c3)COC(N)=N2)cc1Cl (racemic) [Example 108, (RS)-4-(3-Chloro-4-methoxy-phenyl)-4-[3-(5-chloro-pyridin-3-yl)-4-fluoro-phenyl]-4,5-dihydro-oxazol-2-ylamine formate] | 290
COc1ccc(C2(c3cccc(-c4cncc(F)c4)c3)COC(N)=N2)cc1Cl (racemic) [Example 78, (RS)-4-(3-Chloro-4-methoxy-phenyl)-4-[3-(5-fluoro-pyridin-3-yl)-phenyl]-4,5-dihydro-oxazol-2-ylamine] | 640
NC1=NC(c2ccc(OC(F)F)cc2)(c2cccc(-c3cncc(F)c3)c2)CO1 (racemic) [Example 88, (RS)-4-(4-Difluoromethoxy-phenyl)-4-[3-(5-fluoro-pyridin-3-yl)-phenyl]-4,5-dihydro-oxazol-2-ylamine formate] | 370
Cc1cc(C2(c3cccc(-c4cccnc4F)c3)COC(N)=N2)ccc1OC(F)F (racemic) [Example 98, (RS)-4-(4-Difluoromethoxy-3-methyl-phenyl)-4-[3-(2-fluoro-pyridin-3-yl)-phenyl]-4,5-dihydro-oxazol-2-ylamine formate] | 150
COc1ccc(C2(c3ccc(F)c(-c4cncc(F)c4)c3)COC(N)=N2)cc1C (racemic) [Example 52, (RS)-4-[4-Fluoro-3-(5-fluoro-pyridin-3-yl)-phenyl]-4-(4-methoxy-3-methyl-phenyl)-4,5-dihydro-oxazol-2-ylamine formate] | 190
Cc1cc(OC(F)F)ccc1C1(c2cccc(-c3cncc(Cl)c3)c2)COC(N)=N1 (racemic) [Example 201, (RS)-4-[3-(5-Chloro-pyridin-3-yl)-phenyl]-4-(4-difluoromethoxy-2-methyl-phenyl)-4,5-dihydro-oxazol-2-ylamine formate] | 160
Cc1cc(OC(F)F)ccc1C1(c2cccc(-c3cncc(C#N)c3)c2)COC(N)=N1 (racemic) [Example 200, (RS)-5-{3-[2-Amino-4-(4-difluoromethoxy-2-methyl-phenyl)-4,5-dihydro-oxazol-4-yl]-phenyl}-nicotinonitrile formate] | 380
COc1ccc(C2(c3cccc(-c4cccc(Cl)c4)c3)COC(N)=N2)cc1 (racemic) [Example 39, (RS)-4-(3′-Chloro-biphenyl-3-yl)-4-(4-methoxy-phenyl)-4,5-dihydro-oxazol-2-ylamine formate] | 810
COc1ccc(C2(c3ccc(F)c(-c4cncc(F)c4)c3)COC(N)=N2)cc1Cl (racemic) [Example 112, (RS)-4-(3-Chloro-4-methoxy-phenyl)-4-[4-fluoro-3-(5-fluoro-pyridin-3-yl)-phenyl]-4,5-dihydro-oxazol-2-ylamine] | 640
COc1cncc(-c2cccc(C3(c4ccc(OC)c(Cl)c4)COC(N)=N3)c2)c1 (racemic) [Example 74, (RS)-4-(3-Chloro-4-methoxy-phenyl)-4-[3-(5-methoxy-pyridin-3-yl)-phenyl]-4,5-dihydro-oxazol-2-ylamine] | 130
COc1ccc(C2(c3cccc(-c4cccc(Cl)c4)c3)COC(N)=N2)cc1C (racemic) [Example 42, (RS)-4-(3′-Chloro-biphenyl-3-yl)-4-(4-methoxy-3-methyl-phenyl)-4,5-dihydro-oxazol-2-ylamine formate] | 800
COc1ccc(F)c(-c2cc(C3(c4ccc(OC(F)F)c(C)c4)COC(N)=N3)ccc2F)c1 (racemic) [Example 123, (RS)-4-(6,2′-Difluoro-5′-methoxy-biphenyl-3-yl)-4-(4-difluoromethoxy-3-methyl-phenyl)-4,5-dihydro-oxazol-2-ylamine formate] | 200
COc1ccc([C@@]2(c3cccc(-c4cccc(Cl)c4)c3)COC(N)=N2)cc1 [Example 39A, (R)-4-(3′-Chloro-biphenyl-3-yl)-4-(4-methoxy-phenyl)-4,5-dihydro-oxazol-2-ylamine] | 440
COc1cccc(-c2cc(C3(c4ccc(OC)c(C)c4)COC(N)=N3)ccc2F)c1 (racemic) [Example 21, (RS)-4-(6-Fluoro-3′-methoxy-biphenyl-3-yl)-4-(4-methoxy-3-methyl-phenyl)-4,5-dihydro-oxazol-2-ylamine formate] | 794
Cc1cc(C2(c3cccc(-c4cccc(Cl)c4)c3)COC(N)=N2)ccc1OC(F)F (racemic) [Example 99, (RS)-4-(3′-Chloro-biphenyl-3-yl)-4-(4-difluoromethoxy-3-methyl-phenyl)-4,5-dihydro-oxazol-2-ylamine formate] | 170
COc1ccc(C2(c3ccc(F)c(-c4cncnc4)c3)COC(N)=N2)cc1C (racemic) [Example 19, (RS)-4-(4-Fluoro-3-pyrimidin-5-yl-phenyl)-4-(4-methoxy-3-methyl-phenyl)-4,5-dihydro-oxazol-2-ylamine] | 531
Cc1cc(OC(F)F)ccc1C1(c2cccc(-c3cncnc3)c2)COC(N)=N1 (racemic) [Example 129, (RS)-4-(4-Difluoromethoxy-2-methyl-phenyl)-4-(3-pyrimidin-5-yl-phenyl)-4,5-dihydro-oxazol-2-ylamine formate] | 500
COc1cncc(-c2cccc(C3(c4ccc(OC(F)F)c(Cl)c4)COC(N)=N3)c2)c1 (racemic) [Example 117, (RS)-4-(3-Chloro-4-difluoromethoxy-phenyl)-4-[3-(5-methoxy-pyridin-3-yl)-phenyl]-4,5-dihydro-oxazol-2-ylamine formate] | 80
